Values joined by “and” are separate entries in the source; they are usually repeats but may differ in a detail not shown here. Equal values may be shown once. Toxic doses and inconclusive results are not listed.
Test system: CD2F1 mice, L1210 leukemia ip, survival T/C
Experiment: NCI In Vivo Anticancer Drug Screen. Data for tumor model L1210 Leukemia (intraperitoneal) in CD2F1 (CDF1) mice
Conditions: higher = longer survival
Summary of the method: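 Each value reflects a quotient of treated over vehicle control outcomes in mice with a transplanted tumor.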

[1] = endpoint: mean survival time, dose: 100.0 mg/kg/injection, schedule: Q01DX001 (ip), vehicle: saline
[2] = endpoint: mean survival time, dose: 200.0 mg/kg/injection, schedule: Q01DX001 (ip), vehicle: saline
[3] = endpoint: mean survival time, dose: 400.0 mg/kg/injection, schedule: Q01DX001 (ip), vehicle: saline
[4] = endpoint: mean survival time, dose: 25.0 mg/kg/injection, schedule: Q04DX002 (ip), vehicle: saline with Tween-80
[5] = endpoint: mean survival time, dose: 100.0 mg/kg/injection, schedule: Q04DX002 (ip), vehicle: saline with Tween-80
[6] = endpoint: mean survival time, dose: 100.0 mg/kg/injection, schedule: Q01DX009 (ip), vehicle: Klucel (hydroxypropylcellulose) (HPC)
[7] = endpoint: mean survival time, dose: 200.0 mg/kg/injection, schedule: Q01DX009 (ip), vehicle: Klucel (hydroxypropylcellulose) (HPC)
[8] = endpoint: mean survival time, dose: 100.0 mg/kg/injection, schedule: Q04DX003 (ip), vehicle: saline with Tween-80
[9] = endpoint: mean survival time, dose: 200.0 mg/kg/injection, schedule: Q04DX003 (ip), vehicle: saline with Tween-80
[10] = endpoint: mean survival time, dose: 400.0 mg/kg/injection, schedule: Q04DX003 (ip), vehicle: saline with Tween-80
[11] = endpoint: mean survival time, dose: 200.0 mg/kg/injection, schedule: Q04DX002 (ip), vehicle: saline with Tween-80
[12] = endpoint: mean survival time, dose: 400.0 mg/kg/injection, schedule: Q04DX002 (ip), vehicle: saline with Tween-80

## N=c1nc2n(cc1F)[C@@H]1O[C@H](CO)[C@@H](O)[C@@H]1O2
endpoint: mean survival time, dose: 17.0 mg/kg/injection, schedule: Q04DX003 (ip), vehicle: saline
  T/C: 119 % of control
endpoint: mean survival time, dose: 25.0 mg/kg/injection, schedule: Q01DX009 (ip), vehicle: saline
  T/C: 155 % of control
endpoint: mean survival time, dose: 50.0 mg/kg/injection, schedule: Q01DX009 (ip), vehicle: saline
  T/C: 162 % of control and 188 % of control
endpoint: mean survival time, dose: 68.0 mg/kg/injection, schedule: Q04DX003 (ip), vehicle: saline
  T/C: 150 % of control
[1]
  T/C: 110 % of control
endpoint: mean survival time, dose: 100.0 mg/kg/injection, schedule: Q01DX009 (ip), vehicle: saline
  T/C: 193 % of control and 250 % of control
[2]
  T/C: 117 % of control
endpoint: mean survival time, dose: 200.0 mg/kg/injection, schedule: Q01DX009 (ip), vehicle: saline
  T/C: 224 % of control and 303 % of control
[3]
  T/C: 120 % of control
endpoint: mean survival time, dose: 400.0 mg/kg/injection, schedule: Q01DX009 (ip), vehicle: saline
  T/C: 305 % of control and 331 % of control
endpoint: mean survival time, dose: 800.0 mg/kg/injection, schedule: Q01DX009 (ip), vehicle: saline
  T/C: 239 % of control
endpoint: median survival time, dose: 16.0 mg/kg/injection, schedule: Q01DX005 (ip), vehicle: saline
  T/C: 124 % of control
endpoint: median survival time, dose: 256.0 mg/kg/injection, schedule: Q01DX005 (ip), vehicle: saline
  T/C: 216 % of control
endpoint: median survival time, dose: 512.0 mg/kg/injection, schedule: Q01DX005 (ip), vehicle: saline
  T/C: 349 % of control

## C[Si](C)(C)NP(=O)(Oc1ccc([N+](=O)[O-])cc1)Oc1ccc([N+](=O)[O-])cc1
endpoint: mean survival time, dose: 15.6 mg/kg/injection, schedule: Q01DX001 (ip), vehicle: other
  T/C: 110 % of control
endpoint: mean survival time, dose: 31.3 mg/kg/injection, schedule: Q01DX001 (ip), vehicle: other
  T/C: 97 % of control
endpoint: mean survival time, dose: 62.5 mg/kg/injection, schedule: Q01DX001 (ip), vehicle: other
  T/C: 102 % of control and 108 % of control
endpoint: mean survival time, dose: 125.0 mg/kg/injection, schedule: Q01DX001 (ip), vehicle: other
  T/C: 87 % of control and 94 % of control

## NC(=O)c1ccc(OC(F)(F)C(F)Cl)cc1OC(F)(F)C(F)Cl (centres undefined)
[4]
  T/C: 96 % of control
endpoint: mean survival time, dose: 50.0 mg/kg/injection, schedule: Q04DX002 (ip), vehicle: saline with Tween-80
  T/C: 101 % of control
[5]
  T/C: 101 % of control

## COC(=O)C1CCC(N(C)S(=O)(=O)c2ccc(C)cc2)CC1 (centres undefined)
[6]
  T/C: 100 % of control
[7]
  T/C: 96 % of control
endpoint: mean survival time, dose: 400.0 mg/kg/injection, schedule: Q01DX009 (ip), vehicle: Klucel (hydroxypropylcellulose) (HPC)
  T/C: 92 % of control

## N#CCCOC1CCCCC1
[8]
  T/C: 98 % of control
[9]
  T/C: 93 % of control
[10]
  T/C: 93 % of control

## [Cl][Pt+2][Cl].[NH-]c1cc2ccccc2cc1[NH-]
endpoint: mean survival time, dose: 2.5 mg/kg/injection, schedule: Q01DX009 (ip), vehicle: saline with Tween-80
  T/C: 102 % of control
endpoint: mean survival time, dose: 5.0 mg/kg/injection, schedule: Q01DX009 (ip), vehicle: saline with Tween-80
  T/C: 109 % of control
endpoint: mean survival time, dose: 10.0 mg/kg/injection, schedule: Q01DX009 (ip), vehicle: saline with Tween-80
  T/C: 109 % of control
endpoint: mean survival time, dose: 20.0 mg/kg/injection, schedule: Q01DX009 (ip), vehicle: saline with Tween-80
  T/C: 100 % of control and 112 % of control
endpoint: mean survival time, dose: 40.0 mg/kg/injection, schedule: Q01DX009 (ip), vehicle: saline with Tween-80
  T/C: 105 % of control and 111 % of control
endpoint: mean survival time, dose: 80.0 mg/kg/injection, schedule: Q01DX009 (ip), vehicle: saline with Tween-80
  T/C: 105 % of control
endpoint: mean survival time, dose: 160.0 mg/kg/injection, schedule: Q01DX009 (ip), vehicle: saline with Tween-80
  T/C: 106 % of control
endpoint: mean survival time, dose: 320.0 mg/kg/injection, schedule: Q01DX009 (ip), vehicle: saline with Tween-80
  T/C: 111 % of control

## FC(F)(F)c1ccc2c(c1)N(CCCN1CCN(CCC3OCCCO3)CC1)c1ccccc1S2
endpoint: mean survival time, dose: 0.78 mg/kg/injection, schedule: Q01DX009 (ip), vehicle: saline
  T/C: 96 % of control
endpoint: mean survival time, dose: 1.56 mg/kg/injection, schedule: Q01DX009 (ip), vehicle: saline
  T/C: 96 % of control
endpoint: mean survival time, dose: 3.12 mg/kg/injection, schedule: Q01DX009 (ip), vehicle: saline
  T/C: 94 % of control
endpoint: mean survival time, dose: 6.25 mg/kg/injection, schedule: Q01DX009 (ip), vehicle: saline
  T/C: 96 % of control
endpoint: mean survival time, dose: 12.5 mg/kg/injection, schedule: Q01DX009 (ip), vehicle: saline
  T/C: 103 % of control

## Cc1cc(NC(=O)SCCOC(=O)COc2ccc(Cl)cc2)ccc1Cl
[8]
  T/C: 91 % of control
[9]
  T/C: 91 % of control
[10]
  T/C: 89 % of control

## O=C(CC(NC(=O)OCc1ccccc1)c1nn[nH]n1)OCc1ccccc1 (centres undefined)
[8]
  T/C: 86 % of control
[9]
  T/C: 94 % of control
[10]
  T/C: 91 % of control

## S=C(NCc1ccccc1)NCc1ccccc1
[8]
  T/C: 108 % of control
[9]
  T/C: 100 % of control
[10]
  T/C: 102 % of control

## CC(Br)(C(=O)O)C1CCCCC1 (centres undefined)
endpoint: mean survival time, dose: 100.0 mg/kg/injection, schedule: Q01DX001 (ip), vehicle: saline with Tween-80
  T/C: 93 % of control
endpoint: mean survival time, dose: 200.0 mg/kg/injection, schedule: Q01DX001 (ip), vehicle: saline with Tween-80
  T/C: 96 % of control
endpoint: mean survival time, dose: 400.0 mg/kg/injection, schedule: Q01DX001 (ip), vehicle: saline with Tween-80
  T/C: 99 % of control

## O/N=C/c1ccc(O)cc1O
[1]
  T/C: 100 % of control
[2]
  T/C: 102 % of control

## CCCCCCNC(=O)Oc1c(C/C=C/CCC(=O)O)c(OC)c(C)c2c1C(=O)OC2
[5]
  T/C: 108 % of control
[11]
  T/C: 112 % of control

## CC1(CCCc2ccc(N(CCCl)CCCl)cc2)NC(=O)NC1=O (centres undefined)
endpoint: mean survival time, dose: 50.0 mg/kg/injection, schedule: Q01DX009 (ip), vehicle: Klucel (hydroxypropylcellulose) (HPC)
  T/C: 114 % of control
[6]
  T/C: 93 % of control
[7]
  T/C: 86 % of control

## O=C1c2cscc2C(=O)c2c(Cl)sc(Cl)c21
endpoint: mean survival time, dose: 12.5 mg/kg/injection, schedule: Q04DX003 (ip), vehicle: saline with Tween-80
  T/C: 96 % of control
endpoint: mean survival time, dose: 25.0 mg/kg/injection, schedule: Q01DX009 (ip), vehicle: saline with Tween-80
  T/C: 103 % of control
endpoint: mean survival time, dose: 25.0 mg/kg/injection, schedule: Q04DX003 (ip), vehicle: saline with Tween-80
  T/C: 98 % of control
endpoint: mean survival time, dose: 50.0 mg/kg/injection, schedule: Q01DX009 (ip), vehicle: saline with Tween-80
  T/C: 97 % of control
endpoint: mean survival time, dose: 50.0 mg/kg/injection, schedule: Q04DX003 (ip), vehicle: saline with Tween-80
  T/C: 90 % of control
endpoint: mean survival time, dose: 100.0 mg/kg/injection, schedule: Q01DX009 (ip), vehicle: saline with Tween-80
  T/C: 91 % of control
[8]
  T/C: 100 % of control

## CC1(CCC2(C)OCCO2)OCCO1
[5]
  T/C: 93 % of control
[11]
  T/C: 101 % of control
[12]
  T/C: 93 % of control

## NC1CC(N)C(O)C(O)C1O (centres undefined)
[1]
  T/C: 95 % of control
[5]
  T/C: 103 % of control
[2]
  T/C: 100 % of control
[11]
  T/C: 103 % of control
[3]
  T/C: 94 % of control
[12]
  T/C: 95 % of control

## Cc1cc(Nc2ccccc2)nc(C)n1
endpoint: mean survival time, dose: 12.5 mg/kg/injection, schedule: Q04DX002 (ip), vehicle: saline with Tween-80
  T/C: 111 % of control
[4]
  T/C: 114 % of control

## COc1ccc(CC(N)C(=O)NC2C(COP(=O)(O)OC3CC(n4cc(C)c(=O)[nH]c4=O)OC3CO)OC(n3cnc4c(N(C)C)ncnc43)C2O)cc1 (centres undefined)
endpoint: median survival time, dose: 5.63 mg/kg/injection, schedule: Q01DX005 (ip), vehicle: water
  T/C: 96 % of control
endpoint: median survival time, dose: 11.25 mg/kg/injection, schedule: Q01DX005 (ip), vehicle: water
  T/C: 96 % of control
endpoint: median survival time, dose: 21.9 mg/kg/injection, schedule: Q01DX005 (ip), vehicle: saline
  T/C: 109 % of control
endpoint: median survival time, dose: 22.5 mg/kg/injection, schedule: Q01DX005 (ip), vehicle: water
  T/C: 94 % of control
endpoint: median survival time, dose: 43.8 mg/kg/injection, schedule: Q01DX005 (ip), vehicle: saline
  T/C: 106 % of control
endpoint: median survival time, dose: 45.0 mg/kg/injection, schedule: Q01DX005 (ip), vehicle: water
  T/C: 100 % of control
endpoint: median survival time, dose: 87.5 mg/kg/injection, schedule: Q01DX005 (ip), vehicle: saline
  T/C: 108 % of control
endpoint: median survival time, dose: 90.0 mg/kg/injection, schedule: Q01DX005 (ip), vehicle: water
  T/C: 104 % of control
endpoint: median survival time, dose: 175.0 mg/kg/injection, schedule: Q01DX005 (ip), vehicle: saline
  T/C: 102 % of control

## CC1(CNC(=O)C(=O)NCC2(C)CO2)CO1 (centres undefined)
endpoint: mean survival time, dose: 22.0 mg/kg/injection, schedule: Q01DX Z (ip), vehicle: saline
  T/C: 122 % of control
endpoint: mean survival time, dose: 150.0 mg/kg/injection, schedule: Q01DX010 (ip), vehicle: saline
  T/C: 113 % of control
endpoint: mean survival time, dose: 225.0 mg/kg/injection, schedule: Q01DX010 (ip), vehicle: saline
  T/C: 106 % of control

Source: PubChem BioAssay AID256 (DTP/NCI, 2004)
